For 17 compounds, IC50 results are on record in patent publication US8476298B2 (Exelixis, Inc., priority 2003, dated 2013).

Where two headings read alike, the source gives them in different places.

One experiment deals with c-Kit kinase (Homo sapiens, UniProt P10721). Put plainly: c-Kit AlphaScreen kinase assay.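 Further: c-Kit kinase phosphorylating biotinylated poly(Glu,Tyr), ATP near its KM, 1 h reaction at ambient temperature, AlphaScreen chemiluminescence with streptavidin donor and anti-phosphotyrosine acceptor beads, 10-point inhibitor titration.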 In kind it is biochemical. For orientation: Alpha assays give light when donor and acceptor beads are brought close together.
For experiment [1], the target named is T1, KDR (baculovirus expressed human KDR kinase domain D807-V1356) (Homo sapiens, UniProt P35968).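 Further: Luciferase-coupled chemiluminescent kinase assay, activity read as percent ATP left after 4 h reaction at ambient temperature, ATP near KM, 10-point dose-response in 384-well plates.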
T1 construct: human KDR kinase domain D807-V1356; host or cells: baculovirus expression
Put plainly: biochemical.

The target in experiment [2] is T2, Flt-3 (baculovirus expressed human Flt-3 kinase domain R571-S993) (Homo sapiens, UniProt P36888).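 Further: Luciferase-coupled chemiluminescent kinase assay, activity read as percent ATP left after a 3 h reaction at room temperature, ATP near KM, 10-point dose-response.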
T2 construct: human Flt-3 kinase domain R571-S993; host or cells: baculovirus expression
T2 sequence (P36888 571-993): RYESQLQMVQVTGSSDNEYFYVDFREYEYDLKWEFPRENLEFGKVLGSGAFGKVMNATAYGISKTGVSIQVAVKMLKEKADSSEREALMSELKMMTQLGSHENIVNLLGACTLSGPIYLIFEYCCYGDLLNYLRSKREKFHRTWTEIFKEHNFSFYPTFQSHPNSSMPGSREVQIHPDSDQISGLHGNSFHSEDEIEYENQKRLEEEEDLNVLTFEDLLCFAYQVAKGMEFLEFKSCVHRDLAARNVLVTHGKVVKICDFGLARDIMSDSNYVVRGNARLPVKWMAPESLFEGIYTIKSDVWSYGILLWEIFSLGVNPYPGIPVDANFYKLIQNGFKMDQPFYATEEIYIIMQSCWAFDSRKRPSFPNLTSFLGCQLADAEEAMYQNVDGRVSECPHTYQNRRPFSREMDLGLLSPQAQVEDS
Put plainly: biochemical. The note with it: read-out: flt3 IC50.

Experiment [3] has as its target T3, c-Met (baculovirus expressed human c-Met kinase domain P948-S1343) (Homo sapiens, UniProt P08581).
T3 construct: human c-Met kinase domain P948-S1343; host or cells: baculovirus expression
Put plainly: c-Met Luciferase-Coupled Chemiluminescent Kinase assay (LCCA).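 Further: kinase activity read as percent ATP left after reaction, by luciferase-luciferin chemiluminescence, with 1 µM ATP and 1 µM poly-EY substrate, 2 h at ambient temperature, 10-point dose-response.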 In kind it is biochemical.

The target in experiment [4] is T4, Flt-4 (baculovirus expressed human Flt-4 kinase domain D725-R1298) (Homo sapiens, UniProt P35916).
T4 construct: human Flt-4 kinase domain D725-R1298; host or cells: baculovirus expression
In words: flt-4 Alphascreen Tyrosine Kinase assay.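 Further: AlphaScreen chemiluminescence read-out of biotinylated poly(Glu,Tyr) 4:1 phosphorylation via streptavidin donor and PY100 anti-phosphotyrosine acceptor beads, ATP near KM, 1 hr kinase reaction, 10-point dose-response.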 The settings on record: read-out: flt4 IC50. The experiment is classed as biochemical.
Experimental: Kinase activity and compound inhibition are investigated using one or more of the three assay formats described below. The ATP concentrations for each assay are selected to be close to the Michaelis-Menten constant (KM) for each individual kinase. Dose-response experiments are performed at 10 different inhibitor concentrations in a 384-well plate format. […] Typically H is close to unity. c-Met Assay
Biochemical activity for flt-4 was assessed using an Alphascreen Tyrosine Kinase protocol. AlphaScreen™ (Perkin Elmer) technology is a proximity assay employing microparticles. Singlet oxygen derived from a donor bead following laser excitation results in chemiluminescence when in proximity (100 Å) to an acceptor bead due to biomolecular interactions. For the Flt-4 assay, donor beads coated with streptavidin and acceptor beads coated with PY100 anti-phosphotyrosine antibody were used (Perkin Elmer). Biotinylated poly(Glu,Tyr) 4:1 (Perkin Elmer) was used as the substrate. Substrate phosphorylation was measured by addition of donor/acceptor beads by chemiluminescence following donor-acceptor bead complex formation. […] Reaction mixtures were incubated for 1 hr at ambient temperature. […] After 2-16 hr incubation at ambient temperature plates were read using an AlphaQuest reader (Perkin Elmer).

The mark [5] stands for this setting: Table 4, inhibition as IC50 class.

Chain of c-Kit kinase (P10721 26-976): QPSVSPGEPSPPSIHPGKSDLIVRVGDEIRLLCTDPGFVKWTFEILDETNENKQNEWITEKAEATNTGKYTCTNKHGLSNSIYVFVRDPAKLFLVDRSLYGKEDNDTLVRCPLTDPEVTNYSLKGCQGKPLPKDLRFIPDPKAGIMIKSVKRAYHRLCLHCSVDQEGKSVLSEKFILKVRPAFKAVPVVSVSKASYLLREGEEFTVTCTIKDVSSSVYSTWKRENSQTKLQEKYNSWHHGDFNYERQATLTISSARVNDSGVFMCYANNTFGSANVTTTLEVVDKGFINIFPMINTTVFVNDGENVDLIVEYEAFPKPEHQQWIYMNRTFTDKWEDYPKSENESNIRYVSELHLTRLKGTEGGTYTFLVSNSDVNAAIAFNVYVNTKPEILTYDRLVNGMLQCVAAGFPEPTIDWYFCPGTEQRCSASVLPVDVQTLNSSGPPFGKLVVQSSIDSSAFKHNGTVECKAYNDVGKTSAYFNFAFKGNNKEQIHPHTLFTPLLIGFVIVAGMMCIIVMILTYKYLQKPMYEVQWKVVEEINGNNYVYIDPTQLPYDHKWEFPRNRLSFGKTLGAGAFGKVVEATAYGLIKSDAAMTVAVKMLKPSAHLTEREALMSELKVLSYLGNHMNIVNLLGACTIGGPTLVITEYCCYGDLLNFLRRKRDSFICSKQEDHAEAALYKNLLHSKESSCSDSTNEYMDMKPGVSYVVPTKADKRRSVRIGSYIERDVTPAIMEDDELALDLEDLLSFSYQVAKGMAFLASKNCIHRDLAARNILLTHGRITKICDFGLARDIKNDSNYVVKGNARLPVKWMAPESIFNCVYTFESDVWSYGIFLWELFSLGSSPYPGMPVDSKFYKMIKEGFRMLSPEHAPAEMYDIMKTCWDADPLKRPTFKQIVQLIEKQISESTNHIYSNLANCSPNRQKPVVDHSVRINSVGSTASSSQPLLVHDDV
T3 sequence (P08581 1011-1343 limits assumed): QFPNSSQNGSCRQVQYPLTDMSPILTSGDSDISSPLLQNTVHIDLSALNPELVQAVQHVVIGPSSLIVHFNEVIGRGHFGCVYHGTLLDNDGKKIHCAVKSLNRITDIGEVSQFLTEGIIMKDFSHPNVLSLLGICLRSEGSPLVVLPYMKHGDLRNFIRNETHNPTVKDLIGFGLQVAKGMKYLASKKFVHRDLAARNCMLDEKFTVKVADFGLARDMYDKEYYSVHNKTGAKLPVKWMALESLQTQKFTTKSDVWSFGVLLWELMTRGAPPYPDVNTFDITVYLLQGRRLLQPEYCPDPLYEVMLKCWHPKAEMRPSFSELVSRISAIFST
T4 sequence (P35916 725-1298 isoform P35916-1): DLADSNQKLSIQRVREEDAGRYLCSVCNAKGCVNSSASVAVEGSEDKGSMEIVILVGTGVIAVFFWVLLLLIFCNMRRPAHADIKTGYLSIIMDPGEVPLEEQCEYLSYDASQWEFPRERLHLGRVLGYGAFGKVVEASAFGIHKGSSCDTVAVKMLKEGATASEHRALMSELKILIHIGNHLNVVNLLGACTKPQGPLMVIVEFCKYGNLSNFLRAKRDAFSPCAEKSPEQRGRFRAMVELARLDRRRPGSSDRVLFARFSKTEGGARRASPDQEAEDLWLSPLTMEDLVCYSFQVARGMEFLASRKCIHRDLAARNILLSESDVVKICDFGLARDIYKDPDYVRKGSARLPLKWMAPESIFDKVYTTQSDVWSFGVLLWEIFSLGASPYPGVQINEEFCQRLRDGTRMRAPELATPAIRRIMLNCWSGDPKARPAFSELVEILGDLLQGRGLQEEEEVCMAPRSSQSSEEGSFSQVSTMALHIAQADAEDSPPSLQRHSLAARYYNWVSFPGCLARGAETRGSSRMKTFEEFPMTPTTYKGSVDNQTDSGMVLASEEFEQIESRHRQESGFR
T1 sequence (P35968 807-1356): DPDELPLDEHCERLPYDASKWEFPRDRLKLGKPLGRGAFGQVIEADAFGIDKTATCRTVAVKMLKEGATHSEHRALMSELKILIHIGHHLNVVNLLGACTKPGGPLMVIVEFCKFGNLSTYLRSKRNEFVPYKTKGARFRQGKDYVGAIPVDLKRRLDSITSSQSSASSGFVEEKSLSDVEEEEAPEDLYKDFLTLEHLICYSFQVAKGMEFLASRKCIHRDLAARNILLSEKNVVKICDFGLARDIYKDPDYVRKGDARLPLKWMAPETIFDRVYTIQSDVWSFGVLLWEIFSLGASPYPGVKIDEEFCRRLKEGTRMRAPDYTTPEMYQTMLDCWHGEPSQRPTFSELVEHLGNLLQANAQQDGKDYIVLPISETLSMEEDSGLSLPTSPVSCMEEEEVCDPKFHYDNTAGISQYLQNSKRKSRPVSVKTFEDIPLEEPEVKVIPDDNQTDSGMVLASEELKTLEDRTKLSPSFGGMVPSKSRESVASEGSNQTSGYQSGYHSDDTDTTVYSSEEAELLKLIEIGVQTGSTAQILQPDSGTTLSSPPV

For `COc1ccc(CCN(C)C(=O)C(=O)Nc2ccc(Oc3ccnc4cc(OCC5CCNCC5)c(OC)cc34)c(F)c2)cc1OC` [Example 279, N-{2-[3,4-bis(methyloxy)phenyl]ethyl}-N′-[3-fluoro-4-({6-(methyloxy)-7-[(piperidin-4-ylmethyl)oxy]quinolin-4-yl}oxy)phenyl]-N-methylethanediamide], the half-maximal inhibitory concentration (IC50) (usually the concentration that gives 50% inhibition) is 50 to 500 nM on c-Kit kinase (setting [5]); 50 to 500 nM in experiment [1] (setting [5]); < 50 nM in experiment [2] (setting [5]); 50 to 500 nM in experiment [3] (setting [5]); 50 to 500 nM in experiment [4] (setting [5]).

As for `COc1cc2c(Oc3ccc(NC(=O)C4(C(=O)Nc5ccc(F)cc5)CC4)cc3F)ncnc2cc1OCC1CCN(C)CC1` [Example 316, N-{3-fluoro-4-[(6-(methyloxy)-7-{[(1-methylpiperidin-4-yl)methyl]oxy}quinazolin-4-yl)oxy]phenyl}-N′-(4-fluorophenyl)cyclopropane-1,1-dicarboxamide], the IC50 (against c-Kit kinase; in experiment [1]; in experiment [2]; in experiment [3]; in experiment [4]) was < 50 nM in each case.

`COc1cc2c(Oc3ccc(NC(=O)C4(C(=O)Nc5ccc(F)cc5)CC4)cc3F)ccnc2cc1OCCCN1CCN(C)CC1` [Example 333, N-{3-fluoro-4-[(6-(methyloxy)-7-{[3-(4-methylpiperazin-1-yl)propyl]oxy}quinolin-4-yl)oxy]phenyl}-N′-(4-fluorophenyl)cyclopropane-1,1-dicarboxamide]: the IC50 (against c-Kit kinase; in experiment [1]; in experiment [2]; in experiment [3]; in experiment [4]) was < 50 nM each time.

For `COc1cc2nccc(Oc3ccc(NC(=O)C4(C(=O)Nc5ccc(F)cc5)CC4)cc3F)c2cc1OCCCN1CCOCC1` [Example 322, N-[3-fluoro-4-({7-(methyloxy)-6-[(3-morpholin-4-ylpropyl)oxy]quinolin-4-yl}oxy)phenyl]-N′-(4-fluorophenyl)cyclopropane-1,1-dicarboxamide], the concentration for half-maximal inhibition (IC50) (against c-Kit kinase; in experiment [1]; in experiment [2]; in experiment [3]; in experiment [4]) was < 50 nM each time.

Turning to `COc1cc2c(Oc3ccc(NC(=O)C(=O)NCc4c(F)cccc4F)cc3F)ccnc2cc1OCC1CCNCC1` [Example 257, N-[(2,6-difluorophenyl)methyl]-N′-[3-fluoro-4-({6-(methyloxy)-7-[(piperidin-4-ylmethyl)oxy]quinolin-4-yl}oxy)phenyl]ethanediamide], the 50% inhibitory concentration (IC50) at c-Kit kinase (setting [5]) is < 50 nM; in experiment [1] (setting [5]) it was < 50 nM; in experiment [2] (setting [5]) it was 50 to 500 nM; in experiment [3] (setting [5]), < 50 nM; in experiment [4] (setting [5]), < 50 nM.

As for `COc1cc2ncnc(Oc3ccc(NC(=O)C4(C(=O)Nc5ccc(F)cc5)CC4)cc3F)c2cc1OCCCN1CCOCC1` [Example 321, N-[3-fluoro-4-({7-(methyloxy)-6-[(3-morpholin-4-ylpropyl)oxy]quinazolin-4-yl}oxy)phenyl]-N′-(4-fluorophenyl)cyclopropane-1,1-dicarboxamide], the IC50 on c-Kit kinase is 50 to 500 nM; in experiment [1], < 50 nM; in experiment [2], < 50 nM; in experiment [3] it was < 50 nM; in experiment [4], < 50 nM.

For the compound `COc1cc2c(Oc3ncc(NC(=O)CC(=O)Nc4ccc(F)cc4)cc3Cl)ccnc2cc1OCCCN1CCCCC1` [Example 265, N-[5-chloro-6-({6-(methyloxy)-7-[(3-piperidin-1-ylpropyl)oxy]quinolin-4-yl}oxy)pyridin-3-yl]-N′-(4-fluorophenyl)propanediamide], the concentration for half-maximal inhibition (IC50) is 50 to 500 nM against c-Kit kinase (setting [5]); 50 to 500 nM in experiment [1] (setting [5]); < 50 nM in experiment [2] (setting [5]); < 50 nM in experiment [3] (setting [5]); 50 to 500 nM in experiment [4] (setting [5]).

`CCN(CC)CCCOc1cc2nccc(Oc3ncc(NC(=O)CC(=O)Nc4ccc(F)cc4)cc3Cl)c2cc1OC` [Example 267, N-(5-chloro-6-{[7-{[3-(diethylamino)propyl]oxy}-6-(methyloxy)quinolin-4-yl]oxy}pyridin-3-yl)-N′-(4-fluorophenyl)propanediamide]: the concentration for half-maximal inhibition (IC50) on c-Kit kinase (setting [5]) was 50 to 500 nM; in experiment [1] (setting [5]) it was 50 to 500 nM; in experiment [2] (setting [5]) it was < 50 nM; in experiment [3] (setting [5]), < 50 nM; in experiment [4] (setting [5]) it was 50 to 500 nM.

On to `COc1cc2c(Oc3ccc(NC(=O)[C@@]4(C(=O)Nc5ccc(F)cc5)C[C@H]4C)cc3F)ccnc2cc1OCCCN1CCOCC1` [Example 342, (1S,2R)-N-[3-fluoro-4-({6-(methyloxy)-7-[(3-morpholin-4-ylpropyl)oxy]quinolin-4-yl}oxy)phenyl]-N′-(4-fluorophenyl)-2-methylcyclopropane-1,1-dicarboxamide], for which the half-inhibitory concentration (IC50) is 50 to 500 nM against c-Kit kinase; < 50 nM in experiment [1]; < 50 nM in experiment [2]; < 50 nM in experiment [3]; < 50 nM in experiment [4].

On to `COc1cc2c(Oc3ccc(NC(=O)C(=O)NCc4cc(Cl)cc(Cl)c4)cc3F)ccnc2cc1OCC1CCNCC1` [Example 217, N-[(3,5-dichlorophenyl)methyl]-N′-[3-fluoro-4-({6-(methyloxy)-7-[(piperidin-4-ylmethyl)oxy]quinolin-4-yl}oxy)phenyl]ethanediamide], for which the IC50 (against c-Kit kinase (setting [5]); in experiment [1] (setting [5]); in experiment [2] (setting [5]); in experiment [3] (setting [5]); in experiment [4] (setting [5])) was < 50 nM in each case.

On to `COc1cc2c(Oc3ccc(NC(=O)C(=O)NCCN4CCOCC4)cc3F)ccnc2cc1OCC1CCNCC1` [Example 298, N-[3-fluoro-4-({6-(methyloxy)-7-[(piperidin-4-ylmethyl)oxy]quinolin-4-yl}oxy)phenyl]-N′-(2-morpholin-4-ylethyl)ethanediamide], for which the half-maximal inhibitory concentration (IC50) was 50 to 500 nM on c-Kit kinase; < 50 nM in experiment [1]; < 50 nM in experiment [2]; 50 to 500 nM in experiment [3]; 50 to 500 nM in experiment [4].

As for `COc1cc2c(Oc3ccc(NC(=O)C(=O)NC(C)c4ccc(Br)cc4)cc3F)ccnc2cc1OCC1CCNCC1` (stereo not shown) [Example 221, N-[1-(4-bromophenyl)ethyl]-N′-[3-fluoro-4-({6-(methyloxy)-7-[(piperidin-4-ylmethyl)oxy]quinolin-4-yl}oxy)phenyl]ethanediamide], the IC50 against c-Kit kinase (setting [5]) is 50 to 500 nM; in experiment [1] (setting [5]), 50 to 500 nM; in experiment [2] (setting [5]), 50 to 500 nM; in experiment [3] (setting [5]), < 50 nM; in experiment [4] (setting [5]) it was 50 to 500 nM.

For the compound `COc1cc2c(Oc3ccc(NC(=O)C(=O)NC(C)C)cc3F)ccnc2cc1OCC1CCNCC1` [Example 294, N-[3-fluoro-4-({6-(methyloxy)-7-[(piperidin-4-ylmethyl)oxy]quinolin-4-yl}oxy)phenyl]-N′-(1-methylethyl)ethanediamide], the half-maximal inhibitory concentration (IC50) at c-Kit kinase is 50 to 500 nM; in experiment [1], 50 to 500 nM; in experiment [2], 50 to 500 nM; in experiment [3] it was < 50 nM; in experiment [4] it was 500 to 5000 nM.

With `COc1cc2c(Oc3ccc(NC(=O)C(=O)NCCc4ccc(N)cc4)cc3F)ccnc2cc1OCC1CCNCC1` [Example 286, N-[2-(4-aminophenyl)ethyl]-N′-[3-fluoro-4-({6-(methyloxy)-7-[(piperidin-4-ylmethyl)oxy]quinolin-4-yl}oxy)phenyl]ethanediamide], the IC50 on c-Kit kinase was 50 to 500 nM; in experiment [1], 50 to 500 nM; in experiment [2], 50 to 500 nM; in experiment [3], < 50 nM; in experiment [4] it was 50 to 500 nM.

For `COc1cc2c(Oc3ccc(NC(=O)C(=O)NCc4cc(C(F)(F)F)ccc4Cl)cc3F)ccnc2cc1OCC1CCNCC1` [Example 234, N-{[2-chloro-5-(trifluoromethyl)phenyl]methyl}-N′-[3-fluoro-4-({6-(methyloxy)-7-[(piperidin-4-ylmethyl)oxy]quinolin-4-yl}oxy)phenyl]ethanediamide], the IC50 at c-Kit kinase (setting [5]) was 50 to 500 nM; in experiment [1] (setting [5]) it was < 50 nM; in experiment [2] (setting [5]) it was < 50 nM; in experiment [3] (setting [5]), < 50 nM; in experiment [4] (setting [5]) it was 50 to 500 nM.

For the compound `COc1cc2c(Oc3ccc(NC(=O)C(=O)NCc4ccccc4OC(F)(F)F)cc3F)ccnc2cc1OCC1CCNCC1` [Example 244, N-[3-fluoro-4-({6-(methyloxy)-7-[(piperidin-4-ylmethyl)oxy]quinolin-4-yl}oxy)phenyl]-N′-({2-[(trifluoromethyl)oxy]phenyl}methyl)ethanediamide], the IC50 (against c-Kit kinase (setting [5]); in experiment [1] (setting [5]); in experiment [2] (setting [5]); in experiment [3] (setting [5]); in experiment [4] (setting [5])) was < 50 nM in each case.

As to `CCN(C)C(=O)C(=O)Nc1ccc(Oc2ccnc3cc(OCC4CCNCC4)c(OC)cc23)c(F)c1` [Example 300, N-ethyl-N′-[3-fluoro-4-({6-(methyloxy)-7-[(piperidin-4-ylmethyl)oxy]quinolin-4-yl}oxy)phenyl]-N-methylethanediamide], the half-inhibitory concentration (IC50) on c-Kit kinase was 500 to 5000 nM; in experiment [1] it was 50 to 500 nM; in experiment [2] it was 50 to 500 nM; in experiment [3] it was < 50 nM; in experiment [4], 50 to 500 nM.
